# Entries after “also recorded” stand apart in the source; their conditions may differ. Like-named read-outs stand apart in the source and are kept apart here.
# Experiments:
# [1] = system: NCC (lysis of IM-9 target cells); test: Costimulation assay: NCC cytotoxicity (51Cr release) with A23187 or mab 5C6; assay type: cell-based, channel catfish (Ictalurus punctatus); conditions: for Percentage specific release: E:T 40:1, 10^-4 M A23187, 60 μM H7 and HA1004, 0.5 μg/ml genistein, 1:3 dilution of tissue culture supernatant, media control 20.6; for activity at 0.5 µg/mL: Ictalurus punctatus, IM-9, 2 h; for influence of pretreatment on A23187 activation: pretreatment prior to A23187
# Procedure: Incubation was two hours and cells were either washed or not washed before addition to ^51 Cr-labeled IM-9 target cells (4- to 6-hour cytotoxicity assays).
# To further investigate this inhibitory effect, a costimulus experiment was done using a calcium ionophore, e.g., A23187, combined with the various inhibitors and activators of NCC activity. Pretreatment of NCC with A23187 produced an almost identical increase in cytotoxicity regardless of the identity of the first treatment.
# In a second costimulus experiment mab 5C6 was used (instead of A23187) to activate cytotoxicity (Table 6).
# [2] = system: NCC; conditions: cited from earlier work
# [3] = system: NCC (lysis of IM-9 target cells); test: NCC cytotoxicity (51Cr release) after treatment with protein kinase inhibitors; assay type: cell-based, channel catfish (Ictalurus punctatus); conditions: for inhibition at 30 µM / inhibition at 60 µM: E:T 80:1
# Procedure: To prepare NCC, fish were lightly anesthetized with ethyl m-aminobenzoate (Sigma Chemical Co.) in water and sacrificed.
# IM-9 target cells were used in cytotoxicity assays. […] Cells were grown in stationary suspension cultures and were maintained at approximately 1×10^6 cells/ml. […]
# [4] = system: NCC membrane proteins (tyrosine phosphorylation); test: Tyrosine phosphorylation of NCC membrane proteins following mab 5C6 activation (Western blot); assay type: cell-based, channel catfish (Ictalurus punctatus); conditions: NCC pretreated two hours with inhibitor; 100 μg/ml genistein or 30 μM HA1004
# Procedure: FIG. 1. Tyrosine phosphorylation of NCC membrane proteins following activation by mab 5C6. NCC were resuspended at 500×10^6 /ml and 200 μl aliquots were incubated at 37° C. with either 125 μl ammonium sulfate precipitate mab 5C6 (left panel) or an isotype control (right panel). At the indicated timed intervals, the reactions were terminated by addition of 325 μl of 2×lysis buffer. Lysates were immunoprecipitated with mab 4G10, electrophoresed on 11% SDS-PAGE, blotted onto nitrocellulose, and probed with mab 4G10. Molecular weight markers are indicated by the arrows.
# FIG. 2. Tyrosine phosphorylation of Percoll-enriched NCC. Fish NCC were centrifuged for 15 minutes at 500 g on a 45.5% Percoll cushion. The cells at the interphase were harvested, washed, and treated with mab 5C6 for 0 and 20 sec before addition of 2×lysis buffer. Lysates were electrophoresed, blotted on nitrocellulose, and probed with mab 4G10.
# FIG. 3. Effects of genistein on tyrosine phosphorylation in fish NCC. Fish NCC were incubated with media, genistein (100 μg/ml), or HA1004 (30 μM) for two hours prior to activation for zero time with mab 5C6 (left lane) and 40 sec with either mab 5C6 (middle lane) or an irrelevant IgM isotype control (right lane). Reactions were stopped by addition of lysis buffer and lysates were processed as explained in the legends to FIGS. 1 and 2. […]
# [5] = system: protein tyrosine kinase (PTK); conditions: NK cells; cited from earlier work
# [6] = system: serine/threonine phosphorylation; conditions: NK cells; cited from earlier work
# [7] = system: human NK cells; conditions: same concentration of H-7; cited from earlier work
# [8] = system: cyclic nucleotide dependent kinases; conditions: cited from earlier work
smiles,measurement,setting,value
CNc1ccc2oc(C[C@H]3O[C@@]4(CC[C@H]3C)O[C@H]([C@H](C)C(=O)c3ccc[nH]3)[C@H](C)C[C@H]4C)nc2c1C(=O)O [A23187],Percentage specific release,[1],81.0%
same,activation of NCC cytotoxicity,[1]; Table 5,strong activation of NCC cytotoxicity
same,ability to overcome kinase inhibitor inhibition of NCC cytotoxicity,[1]; after H-7 or genistein,able to overcome the inhibition produced by treatment of NCC with H-7 or genistein
same,"cytotoxicity of NCC (words, prior work)",[2],"activated NCC cytotoxicity and increased ""receptor"" expression"
"O=c1c(-c2ccc(O)cc2)coc2cc(O)cc(O)c12 [Genistein, genistein]",inhibition of NCC cytotoxicity,[3],almost completely inhibited NCC activity in a dose-dependent fashion
same,inhibition at 142 µg/mL,"[3]; Ictalurus punctatus, IM-9, 142 μg/ml, read-out: inhibition of cytotoxicity",~100%
same,inhibition at 14.2 µg/mL,"[3]; Ictalurus punctatus, 14.2 μg/ml, E:T 20:1, 6 hours, read-out: Percentage inhibition (NCC lysis of IM-9)",55.5%
same,inhibition at 28.4 µg/mL,"[3]; Ictalurus punctatus, 28.4 μg/ml, E:T 20:1, 6 hours, read-out: Percentage inhibition (NCC lysis of IM-9)",75.9%
same,inhibition at 57 µg/mL,"[3]; Ictalurus punctatus, 57.0 μg/ml, E:T 20:1, 6 hours, read-out: Percentage inhibition (NCC lysis of IM-9)",64.9%
same,inhibition at 142 µg/mL,"[3]; Ictalurus punctatus, 142.0 μg/ml, E:T 20:1, 6 hours, read-out: Percentage inhibition (NCC lysis of IM-9)",94%
same,inhibition of cytotoxicity,[3]; between approximately 14 and approximately 57 μg/ml,greater than 50%
same,Percentage specific release,[1],11.0%
same,activity at 0.5 µg/mL,"[1]; 4 × 10^6 NCC/ml, mabs 1:50 dilution, H-7, HA1004 60 μM, genistein 0.5 μg/ml, read-out: Percentage of control (E:T ratio) 40%",38.9%
same,activity at 0.5 µg/mL,"[1]; mabs 1:50 dilution, H-7, HA1004 60 μM, genistein 0.5 μg/ml, read-out: Percentage of control (E:T ratio) 20%",35.5%
same,influence of pretreatment on A23187 activation,[1],did not produce any reductions in A23187 activation; also recorded: did not appear to be additive and did not influence the final level of activation
same,specific protein phosphorylation after mab 5C6,[4],Specific protein phosphorylation was not observed
same,PTK activity,[5],inhibit PTK activity
same,serine/threonine phosphorylation,[6],no effect on serine/threonine phosphorylation
"CC1CNCCN1S(=O)(=O)c1cccc2cnccc12.Cl.Cl (stereo not shown) [H-7, 1-(5-isoquinolinesulfonyl)-2-methylpiperazine di-HCl]",inhibition at 30 µM,"[3]; Ictalurus punctatus, 1 h, read-out: Percentage inhibition (NCC lysis of IM-9), 30 μM, 60 min",12.5%
same,inhibition at 60 µM,"[3]; Ictalurus punctatus, 1 h, read-out: Percentage inhibition (NCC lysis of IM-9), 60 μM, 60 min",10.2%
same,inhibition at 30 µM,"[3]; Ictalurus punctatus, 2 h, read-out: Percentage inhibition (NCC lysis of IM-9), 30 μM, 120 min",31%
same,inhibition at 60 µM,"[3]; Ictalurus punctatus, 2 h, read-out: Percentage inhibition (NCC lysis of IM-9), 60 μM, 120 min",12.6%
same,inhibition at 30 µM,"[3]; Ictalurus punctatus, 3 h, read-out: Percentage inhibition (NCC lysis of IM-9), 30 μM, 180 min/wash",34.2%
same,inhibition at 30 µM,"[3]; Ictalurus punctatus, 3 h, read-out: Percentage inhibition (NCC lysis of IM-9), 30 μM, 180 min",37.8%
same,inhibition at 60 µM,"[3]; Ictalurus punctatus, 3 h, read-out: Percentage inhibition (NCC lysis of IM-9), 60 μM, 180 min/wash",34.5%
same,inhibition at 60 µM,"[3]; Ictalurus punctatus, 3 h, read-out: Percentage inhibition (NCC lysis of IM-9), 60 μM, 180 min",35.7%
same,level of inhibition of NCC activity,[3]; summary of Table 1,approximately 35%
same,effect of removal (washing) of inhibitor on cytotoxicity,[3]; washed prior to addition of target cells,did not substantially affect the cytotoxicity
same,Percentage of control (E:T ratio) 40%,"[1]; 4 × 10^6 NCC/ml, mabs 1:50 dilution, H-7, HA1004 60 μM, genistein 0.5 μg/ml, 120 min",37.5%
same,Percentage specific release,[1],9.1%
same,Percentage of control (E:T ratio) 20%,"[1]; mabs 1:50 dilution, H-7, HA1004 60 μM, genistein 0.5 μg/ml, 120 min",53.9%
same,influence of pretreatment on A23187 activation,[1]; di-HCl,did not produce any reductions in A23187 activation; also recorded: did not appear to be additive and did not influence the final level of activation
same,inhibition of human NK cells,[7],60-90%
same,inhibition of cyclic nucleotide dependent kinases,[8],to a lesser extent it inhibits cyclic nucleotide kinases

# Reference: patent publication US5593678A, “Protection of teleost fish” (University of Georgia Research Foundation, priority 1994, dated 1997)
